Measured values reported in the OligoGym collection.
“And” between values parts separate entries of the source, which are not always exact repeats. Equal entries are not always repeated. After the bases stand the sugars from the 5' end (letter, count) and the backbone: PS all phosphorothioate, else s phosphorothioate and o phosphodiester by linkage. Methylation of C is not given here. e = 2'-O-(2-methoxyethyl) (MOE); k = constrained ethyl (cEt); d = 2'-deoxy (DNA)

Molecular target: IRF4
Details: ASO

Row | Sequence | target mRNA inhibition (SK-MEL-28, 4 µM) | target mRNA inhibition (MM.1R, 1 µM) | also measured
1 | GTCTAGACAGAGAGTC (sugars k3 d10 k3, PS) | 2% |  | 
2 | GTCTAGCTGGGTTTTC (sugars k3 d10 k3, PS) | 63% |  | 
3 | GTCTCTACCTACTCCA (sugars k3 d10 k3, PS) | 41% |  | 
4 | GTCTGAGATGTCCAGC (sugars k3 d10 k3, PS) |  | 7% | 
5 | GTCTGAGGGAATCTGC (sugars k3 d10 k3, PS) | 49% |  | 
6 | GTCTGGCTAGCAGAGG (sugars k3 d10 k3, PS) | 66% |  | target mRNA inhibition (SK-MEL-28, 0.185 µM): 10%; target mRNA inhibition (SK-MEL-28, 5 µM): 68%; target mRNA inhibition (SK-MEL-28, 15 µM): 89%
7 | GTCTTAAGGGTTCAAG (sugars k3 d10 k3, PS) | 49% |  | 
8 | GTCTTCCACAAGAACT (sugars k3 d10 k3, PS) | 47% |  | 
9 | GTCTTTGGGATTCTAT (sugars k3 d10 k3, PS) | 65% |  | 
10 | GTGAAACAGCAGTTCT (sugars k3 d10 k3, PS) | 62% |  | 
11 | GTGACATAAAGGACCC (sugars k3 d10 k3, PS) |  | 10% | 
12 | GTGACTGGAGAGCAAT (sugars k3 d10 k3, PS) | 74% |  | 
13 | GTGATAGCTGAGCTGA (sugars kddddddddddkekek, PS) |  | 29% | 
14 | GTGATAGCTGAGCTGA (sugars kdddddddddkekeke, PS) |  | 16% | 
15 | GTGATAGCTGAGCTGA (sugars kkdddddddddkdkdk, PS) |  | 34% | 
16 | GTGATAGCTGAGCTGA (sugars kkdddddddddkekek, PS) |  | 39% | 
17 | GTGATGTCAGGTTTTC (sugars k3 d9 k3 e1, PS) |  | 71% | target mRNA inhibition (MM.1R, 0.074 µM): 16%; target mRNA inhibition (MM.1R, 0.222 µM): 41%; target mRNA inhibition (MM.1R, 0.666 µM): 66%; target mRNA inhibition (MM.1R, 2 µM): 85%
18 | GTGATGTCAGGTTTTC (sugars kdddddddddkekeke, PS) |  | 30% | 
19 | GTGATGTCAGGTTTTC (sugars kkdddddddddekeke, PS) |  | 58% | target mRNA inhibition (MM.1R, 0.074 µM): 14%; target mRNA inhibition (MM.1R, 0.222 µM): 16%; target mRNA inhibition (MM.1R, 0.666 µM): 30%; target mRNA inhibition (MM.1R, 2 µM): 59%
20 | GTGATGTCAGGTTTTC (sugars kkkdddddddddkeke, PS) |  | 34% | 
21 | GTGATGTCAGGTTTTC (sugars kkkddddddddkekek, PS) |  | 57% | target mRNA inhibition (MM.1R, 0.074 µM): 14%; target mRNA inhibition (MM.1R, 0.222 µM): 35%; target mRNA inhibition (MM.1R, 0.666 µM): 54%; target mRNA inhibition (MM.1R, 2 µM): 77%
22 | GTGCAAGATGACTCCA (sugars k3 d10 k3, PS) | 56% |  | 
23 | GTGCAGGAGAGGCTGA (sugars k3 d10 k3, PS) | 32% |  | 
24 | GTGTCTAAAGTCCCAT (sugars kkddddddddddkeke, PS) |  | 9% and 6% | 

Row | Sequence | target mRNA inhibition (SK-MEL-28, 4 µM) | target mRNA inhibition (MM.1R, 1 µM) | also measured
25 | GTGTGATTAATTCTCC (sugars k3 d10 k3, PS) |  | 64% and 44% | target mRNA inhibition (MM.1R, 0.0625 µM): -15%; target mRNA inhibition (MM.1R, 0.25 µM): 8%; target mRNA inhibition (MM.1R, 4 µM): 87%
26 | GTGTGCTTGCCAAGCC (sugars k2 d9 e3 k2, PS) |  | 75% and 62% | 
27 | GTGTGCTTGCCAAGCC (sugars kkdddddddddekeke, PS) |  | 17% and 19% | 
28 | GTTATCTATGGAAACC (sugars k3 d10 k3, PS) | 42% |  | 
29 | GTTCAAGTATTAAGAT (sugars k3 d10 k3, PS) | 29% |  | 
30 | GTTCCTTTTCAGAGTC (sugars k3 d10 k3, PS) | 72% |  | target mRNA inhibition (SK-MEL-28, 0.185 µM): 16% and 4% and 3%
31 | GTTCGCTGAATTGTCA (sugars k3 d10 k3, PS) | 37% |  | 
32 | GTTCTAGTCGCGCAAG (sugars k3 d10 k3, PS) | 27% |  | 
33 | GTTGACAAATAAGGTA (sugars k3 d10 k3, PS) | 60% |  | 
34 | GTTGGAGCAGCCATAG (sugars k3 d10 k3, PS) | 31% |  | 
35 | GTTGGCTGGTCTTTGT (sugars k2 d9 e3 k2, PS) |  | 24% | 
36 | GTTTATTTCCTACTCT (sugars k3 d10 k3, PS) | 16% |  | 
37 | TAAAATGTCACGCCCG (sugars k3 d10 k3, PS) |  | 0% | 
38 | TAAACTTGGCTGTGGG (sugars k3 d10 k3, PS) | 27% |  | 
39 | TAAATGAGTCGGTCAC (sugars k3 d10 k3, PS) | 76% and 65% |  | 
40 | TAACAGATAACGAGGT (sugars k3 d10 k3, PS) |  | 12% | 
41 | TAACAGGCTATCAGGA (sugars k3 d10 k3, PS) | 26% |  | 
42 | TAACCGGTAGAGTGAG (sugars k3 d10 k3, PS) |  | 27% | 
43 | TAACGGTGTTTCAGAA (sugars k3 d10 k3, PS) | 26% |  | 
44 | TAACTGGCTTCCAGGA (sugars k3 d10 k3, PS) | 30% |  | 
45 | TAAGAGGGCAGTCAAT (sugars k3 d10 k3, PS) | 17% |  | 
46 | TAAGCAAGTGGAGGTC (sugars k3 d10 k3, PS) | 47% |  | 
47 | TAAGTGATAGGTATAC (sugars k3 d10 k3, PS) | 60% |  | 
